According to US11034993B2, “Assay to measure factor Xa inhibitors” (McMaster University, priority 2018, dated 2021):

What was measured:
Format in all cases: biochemical
FXa [1] = molecular target: T1, FXa (Homo sapiens, UniProt P00742); assay: Flu-II cleavage by residual FXa in plasma with LMWH; details: normal human pooled plasma, LMWH 0 to 1 unit/mL final
Target sequence in this assay (P00742 41-179): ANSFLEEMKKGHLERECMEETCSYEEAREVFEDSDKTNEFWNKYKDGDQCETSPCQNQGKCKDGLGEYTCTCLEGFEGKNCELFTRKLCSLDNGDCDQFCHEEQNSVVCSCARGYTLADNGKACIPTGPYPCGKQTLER
Target sequence in this assay (P00742 235-488): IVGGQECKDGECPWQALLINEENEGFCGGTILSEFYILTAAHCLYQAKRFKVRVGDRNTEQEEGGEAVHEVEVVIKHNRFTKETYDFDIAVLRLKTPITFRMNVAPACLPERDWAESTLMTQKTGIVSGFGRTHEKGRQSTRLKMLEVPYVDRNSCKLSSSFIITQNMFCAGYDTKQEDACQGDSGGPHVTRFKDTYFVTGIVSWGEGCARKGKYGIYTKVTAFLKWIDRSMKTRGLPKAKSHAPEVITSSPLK
Target sequence in this assay (P01008 33-464 partner): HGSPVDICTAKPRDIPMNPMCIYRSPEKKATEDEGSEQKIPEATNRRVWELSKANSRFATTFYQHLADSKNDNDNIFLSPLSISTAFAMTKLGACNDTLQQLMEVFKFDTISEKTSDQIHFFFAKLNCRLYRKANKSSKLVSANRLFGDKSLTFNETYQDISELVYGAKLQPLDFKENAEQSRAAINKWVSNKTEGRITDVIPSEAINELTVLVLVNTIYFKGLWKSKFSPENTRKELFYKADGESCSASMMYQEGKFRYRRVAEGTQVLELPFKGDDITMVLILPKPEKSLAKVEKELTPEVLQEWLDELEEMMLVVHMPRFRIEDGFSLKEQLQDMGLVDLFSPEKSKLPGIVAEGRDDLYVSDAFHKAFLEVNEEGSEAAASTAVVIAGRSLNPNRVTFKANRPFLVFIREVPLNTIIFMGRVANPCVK

FXa [2] = molecular target: T1, FXa; assay: Rate of Flu-II cleavage by residual FXa in normal human pooled plasma; details: rivaroxaban 0 to 5 nM, apixaban 0 to 10 nM, 0.1 nM FXa mixture
Target sequence in this assay (P00742 41-179 limits assumed): as the sequence (P00742 41-179) above
Target sequence in this assay (P00742 235-488 limits assumed): as the sequence (P00742 235-488) above
Target sequence in this assay (P12259 29-737 partner limits assumed): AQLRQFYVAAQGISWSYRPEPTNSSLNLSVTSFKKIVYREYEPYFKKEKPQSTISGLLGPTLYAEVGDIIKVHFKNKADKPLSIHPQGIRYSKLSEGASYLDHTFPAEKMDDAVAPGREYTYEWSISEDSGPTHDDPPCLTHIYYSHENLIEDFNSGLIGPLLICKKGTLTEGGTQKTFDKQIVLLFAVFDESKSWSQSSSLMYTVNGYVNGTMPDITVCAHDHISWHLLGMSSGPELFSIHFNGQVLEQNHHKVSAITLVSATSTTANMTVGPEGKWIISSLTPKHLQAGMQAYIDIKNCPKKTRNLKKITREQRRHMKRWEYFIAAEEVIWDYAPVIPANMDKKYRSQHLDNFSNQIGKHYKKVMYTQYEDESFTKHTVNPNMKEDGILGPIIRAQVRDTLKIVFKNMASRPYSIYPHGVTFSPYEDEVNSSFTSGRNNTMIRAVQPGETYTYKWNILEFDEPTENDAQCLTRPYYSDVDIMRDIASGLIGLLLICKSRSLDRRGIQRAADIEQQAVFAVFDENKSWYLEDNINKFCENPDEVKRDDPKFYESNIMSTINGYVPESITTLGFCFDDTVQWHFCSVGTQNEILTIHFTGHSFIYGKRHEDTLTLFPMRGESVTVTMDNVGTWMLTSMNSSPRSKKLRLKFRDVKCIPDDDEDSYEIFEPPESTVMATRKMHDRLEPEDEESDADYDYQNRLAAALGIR
Target sequence in this assay (P12259 1574-2224 partner limits assumed): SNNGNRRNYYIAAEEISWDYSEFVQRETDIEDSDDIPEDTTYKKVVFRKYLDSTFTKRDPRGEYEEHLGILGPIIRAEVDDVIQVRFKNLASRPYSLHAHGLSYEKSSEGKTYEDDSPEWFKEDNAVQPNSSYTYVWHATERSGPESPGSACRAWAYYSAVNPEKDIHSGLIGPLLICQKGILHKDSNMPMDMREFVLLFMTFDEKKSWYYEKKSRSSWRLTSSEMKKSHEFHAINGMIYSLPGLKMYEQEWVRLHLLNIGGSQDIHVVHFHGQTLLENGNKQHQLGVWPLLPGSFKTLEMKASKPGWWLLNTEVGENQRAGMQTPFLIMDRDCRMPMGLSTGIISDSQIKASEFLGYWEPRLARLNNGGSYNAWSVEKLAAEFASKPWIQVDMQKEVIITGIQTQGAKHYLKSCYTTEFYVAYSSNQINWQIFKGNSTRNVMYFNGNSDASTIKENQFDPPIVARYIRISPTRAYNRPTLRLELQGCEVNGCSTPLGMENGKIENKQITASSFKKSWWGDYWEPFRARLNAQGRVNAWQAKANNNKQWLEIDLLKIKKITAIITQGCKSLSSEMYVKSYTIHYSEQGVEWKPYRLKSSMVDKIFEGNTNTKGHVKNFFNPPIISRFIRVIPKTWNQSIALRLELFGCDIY

FXa [3] = molecular target: T1, FXa; assay: Flu-II cleavage by residual FXa in individual plasma samples; details: citrated plasma from four individuals; rivaroxaban 0 to 5 nM, apixaban 0 to 10 nM
Target sequence in this assay (P00742 41-179 limits assumed): as the sequence (P00742 41-179) above
Target sequence in this assay (P00742 235-488 limits assumed): as the sequence (P00742 235-488) above
Target sequence in this assay (P12259 29-737 partner limits assumed): as the sequence (P12259 29-737 partner limits assumed) above
Target sequence in this assay (P12259 1574-2224 partner limits assumed): as the sequence (P12259 1574-2224 partner limits assumed) above

FXa [4] = molecular target: T1, FXa; assay: Flu-II cleavage by residual FXa in whole blood; details: citrated whole blood, 0 to 100 nM in blood (2 nM final, 50-fold dilution)
Target sequence in this assay (P00742 41-179 limits assumed): as the sequence (P00742 41-179) above
Target sequence in this assay (P00742 235-488 limits assumed): as the sequence (P00742 235-488) above
Target sequence in this assay (P12259 29-737 partner limits assumed): as the sequence (P12259 29-737 partner limits assumed) above
Target sequence in this assay (P12259 1574-2224 partner limits assumed): as the sequence (P12259 1574-2224 partner limits assumed) above
Protocol: To test whether Flu-II cleavage by residual FXa can be measured in whole blood, citrated blood was collected to be used in the assay. […] A mixture (50 μL) containing 2 μL of whole blood containing varying levels of the DOACs (0 to 100 nM), 0.4 μM Flu-II, and 2 μM hirudin was monitored with FlexStation 3 fluorescent plate reader as described above. Again after one minute of equilibration, 50 μL of a mixture containing 0.1 nM FXa, 10 nM FVa, 50 μM PCPS, and 20 mM CaCl2 was added and mixed by instrument trituration. The initial rates of fluorescence change was then measured and plotted with respect to the final DOAC concentration in the reaction mixture, which results in a 1:50 dilution.

dalteparin
response of rate of Flu-II cleavage to levels of LMWH (FXa [1]): sensitive to the levels of LMWH

O=C(NC[C@H]1CN(c2ccc(N3CCOCC3=O)cc2)C(=O)O1)c1ccc(Cl)s1 [rivaroxaban]
overall inhibition of total activity (rate of Flu-II cleavage) (FXa [2]): ~85%
maximal inhibition of total FXa activity (FXa [3]): ~80%
maximal inhibition (initial rate of Flu-II cleavage) (FXa [4]): ~50%
